Paper PMC4884984, “Identification of approved and investigational drugs that inhibit hypoxia-inducible factor-1 signaling” (Oncotarget, 2016)
Entries after “also recorded” stand apart in the source; their conditions may differ. Where two headings read alike, the source gives them in different places.

Experiments:
Assay type in all cases: cell-based, human
[1] = system: HIF-1α–NanoLuc HCT116 cells; test: Viability (Luc): CellTiter-Glo counter screen in HIF-1α–NanoLuc cells; settings: Table S7, 1% O2, 18 h
[2] = system: HRE–bla ME-180 cells; test: Viability (BLA): CellTiter-Glo counter screen in HRE–bla cells; settings: for Viability (BLA) confirmatory IC50: Table S7, 1% O2, 18 h
Procedure: (§1) Cell culture of HRE–bla ME-180 cells (Cat. No. K1644, Life Technologies) and HRE–bla assay were conducted according to a reported protocol [6]. […] The fluorescence signals (460/25 nm and 530/20 nm) of CCF4 and luminescence signals of CellTiter-Glo were acquired on an Envision and a ViewLux plate readers (Perkin Elmer), respectively.

[3] = system: HIF-1α–NanoLuc; test: HIF-1α–NanoLuc reporter gene assay (qHTS primary and confirmatory screens)
[4] = system: hypoxia response element-beta-lactamase (HRE–bla); test: HRE-bla reporter gene assay in ME-180 cells; settings: for Emax / IC50: Homo sapiens, ME-180; for Emax / IC50 / HRE–bla confirmatory IC50: Table S7, confirmatory screen; for Emax: read-out: HRE–bla confirmatory Efficacy; for IC50: read-out: HRE–bla confirmatory IC50; for Effect on HRE–bla transcriptional activity, in words: ME-180 cells
Procedure: as §1

[5] = Homo sapiens, Table S2, primary screen, read-out: Pathway inhibitors (primary screen) HIF-1α–NanoLuc Activity Efficacy
[6] = Homo sapiens, Table S2, primary screen, read-out: Pathway inhibitors (primary screen) HIF-1α–NanoLuc Activity IC50
[7] = Homo sapiens, Table S2, validation, read-out: Pathway inhibitors (validation) HIF-1α–NanoLuc Activity Efficacy
[8] = Homo sapiens, Table S2, validation, read-out: Pathway inhibitors (validation) HIF-1α–NanoLuc Activity IC50
[9] = Homo sapiens, 18 h, read-out: IC50 (primary screen, HIF-1α–NanoLuc assay)
[10] = Homo sapiens, read-out: Efficacy (primary screen, HIF-1α–NanoLuc assay)
[11] = Homo sapiens, Table S1, primary screen, hypoxia 1% O2, 18 h, read-out: IC50 (primary screen, HIF-1α–NanoLuc assay)
[12] = Homo sapiens, Table S1, primary screen, read-out: Efficacy (primary screen, HIF-1α–NanoLuc assay)
[13] = Table S2, validation, read-out: Pathway inhibitors (validation) HIF-1α–NanoLuc Activity IC50

SMILES: C=CC(=O)Nc1cc2c(Nc3ccc(F)c(Cl)c3)ncnc2cc1OCCCN1CCOCC1 [Canertinib]
- Viability (Luc) confirmatory IC50 [1]: Inactive
- IC50 ([2]; Homo sapiens, ME-180, Table S7, confirmatory screen, 1% O2, 18 h): 21.2 ± 2.44 µM
- Emax [3, 5]: 50%
- IC50 [3, 6]: 2.37 µM
- Emax [3, 7]: 88 ± 20%
- IC50 [3, 8]: 24.8 ± 10.7 µM
- Emax ([3]; Homo sapiens, Table S7, confirmatory screen, read-out: HIF-1α–NanoLuc confirmatory Efficacy): 88 ± 20%
- IC50 ([3]; Homo sapiens, Table S7, confirmatory screen, read-out: HIF-1α–NanoLuc confirmatory IC50): 28.8 ± 10.7 µM
- Emax ([3]; Homo sapiens, Table S7, primary screen, read-out: HIF-1α–NanoLuc primary Efficacy): 50%
- Emax [4]: 37 ± 22%
- IC50 [4]: 4.67 ± 7.5 µM

SMILES: Cc1ccc(NC(=O)c2ccc(CN3CCN(C)CC3)cc2)cc1Nc1nccc(-c2cccnc2)n1 [Imatinib]
- Emax [3, 5]: 28%

SMILES: COc1cccc2c1C(=O)c1c(O)c3c(c(O)c1C2=O)C[C@@](O)(C(=O)CO)C[C@@H]3O[C@H]1C[C@H](N2CCO[C@H](OC)C2)[C@H](O)[C@H](C)O1 [Nemorubicin]
- IC50 [3, 9]: 0.08 µM
- Emax [3, 10]: 111%

SMILES: COc1cccc2c1C(=O)c1c(O)c3c(c(O)c1C2=O)C[C@@](O)(C(=O)CO)C[C@@H]3O[C@H]1C[C@H](N)[C@@H](O)[C@H](C)O1 [Epirubicin]
- IC50 [3, 11]: 0.3 µM
- Emax [3, 12]: 108%

SMILES: COC(=O)C1=C(C)NC(C)=C(C(=O)OC(C)(C)CN(C)CCC(c2ccccc2)c2ccccc2)C1c1cccc([N+](=O)[O-])c1 (stereo not drawn) [Lercanidipine]
- IC50 [3, 11]: 11.9 µM
- Emax [3, 12]: 63%

SMILES: COc1cc([C@@H]2c3cc4c(cc3[C@H](O)[C@H]3COC(=O)[C@@H]23)OCO4)cc(OC)c1OC [Picropodphyllin]
- Pathway inhibitors (primary screen) HIF-1α–NanoLuc Activity Efficacy ([3]; Table S2, primary screen): 159%
- IC50 ([3]; Table S2, primary screen, read-out: Pathway inhibitors (primary screen) HIF-1α–NanoLuc Activity IC50): 0.53 µM
- Pathway inhibitors (validation) HIF-1α–NanoLuc Activity Efficacy ([3]; Table S2, validation): 159%
- IC50 [3, 13]: 0.53 µM

SMILES: C=C(C)[C@H]1Cc2c(ccc3c2O[C@@H]2COc4cc(OC)c(OC)cc4[C@@H]2C3=O)O1 [Rotenone]
- IC50 [3, 9]: 0.19 µM
- Emax [3, 10]: 91%

SMILES: CC[C@H]1CN2CCc3cc(OC)c(OC)cc3[C@@H]2C[C@@H]1C[C@H]1NCCc2cc(OC)c(OC)cc21 [Emetine]
- Viability (BLA) confirmatory IC50 [2]: Inactive
- Emax [4]: 91 ± 1%
- IC50 [4]: 0.29 ± 0.05 µM

SMILES: Cn1nccc1Nc1nccc(-c2ccn([C@H](CO)c3ccc(Cl)c(F)c3)c(=O)c2)n1 [GDC-0994]
- Emax [3, 7]: 63 ± 7%
- IC50 [3, 8]: 6.11 ± 1.64 µM

SMILES: Cc1ccc(-c2cc(C(F)(F)F)nn2-c2ccc(S(N)(=O)=O)cc2)cc1 [Celecoxib]
- IC50 [3, 11]: 10.6 µM
- Emax [3, 12]: 43%

SMILES: Cc1oncc1C(=O)Nc1ccc(C(F)(F)F)cc1 [Leflunomide]
- Viability (BLA) confirmatory IC50 [2]: Inactive
- HRE–bla confirmatory IC50 [4]: Inactive

SMILES: Cc1c(O)cccc1C(=O)N[C@@H](CSc1ccccc1)[C@H](O)CN1C[C@H]2CCCC[C@H]2C[C@H]1C(=O)NC(C)(C)C [Nelfinavir]
- IC50 [3, 11]: 21.1 µM
- Emax [3, 12]: 120%

SMILES: CC[C@@]1(O)C(=O)OCc2c1cc1n(c2=O)Cc2c-1nc1ccccc1c2/C=N/OC(C)(C)C [Gimatecan]
- IC50 [3, 11]: 0.6 µM
- Emax [3, 12]: 108%
- Emax [3, 5]: 108%

SMILES: C[C@]1(O)C[C@@H](c2nc(-c3ccc4ccc(-c5ccccc5)nc4c3)c3c(N)nccn32)C1 [OSI-906]
- IC50 ([3]; Homo sapiens, HCT-116, HCT116 reporter cells, hypoxia, read-out: HIF-1α–NanoLuc IC50): 6.23 ± 1.64 µM

SMILES: COc1cc(Nc2c(C#N)cnc3cc(OCCCN4CCN(C)CC4)c(OC)cc23)c(Cl)cc1Cl [Bosutinib]
- Emax [3, 5]: 58%
- IC50 [3, 6]: 11.9 µM

SMILES: NC1(c2ccc(-c3nc4ccn5c(=O)[nH]nc5c4cc3-c3ccccc3)cc2)CCC1 [MK-2206]
- Emax [3, 5]: 45%
- IC50 [3, 6]: 0.42 µM

SMILES: COc1cccc2c1C(=O)c1c(O)c3c(c(O)c1C2=O)C[C@@](O)(C(=O)CO)C[C@@H]3O[C@H]1C[C@H](N)[C@H](O[C@@H]2CCCCO2)[C@H](C)O1 [Pirarubicin]
- IC50 [3, 11]: 11.9 µM
- Emax [3, 12]: 97%

SMILES: OCc1ccc(-c2nn(Cc3ccccc3)c3ccccc23)o1 [YC-1]
- Effect on HIF-1α–NanoLuc level / luciferase activity, in words ([3]; HCT116 reporter cells): decrease in luciferase expression in a concentration response manner

SMILES: Cc1ccc(C(=O)Nc2ccc(S(=O)(=O)O)c3cc(S(=O)(=O)O)cc(S(=O)(=O)O)c23)cc1NC(=O)c1cccc(NC(=O)Nc2cccc(C(=O)Nc3cc(C(=O)Nc4ccc(S(=O)(=O)O)c5cc(S(=O)(=O)O)cc(S(=O)(=O)O)c45)ccc3C)c2)c1 [Suramin]
- Emax [3, 7]: 41 ± 7%
- IC50 [3, 8]: 24.5 ± 3.13 µM

SMILES: Cc1cc(C)c(/C=C2\C(=O)Nc3ccccc32)[nH]1 [SU-5416]
- Viability (BLA) confirmatory IC50 [2]: Inactive
- Emax [4]: 111 ± 12%
- IC50 [4]: 12.8 ± 0.84 µM

SMILES: O=c1c(-c2ccc(O)cc2)coc2cc(O)cc(O)c12 [Genistein]
- IC50 [3, 11]: 8.41 µM
- Emax [3, 12]: 65%

SMILES: Cn1cc(C2=C(c3cn(C4CCN(Cc5ccccn5)CC4)c4ccccc34)C(=O)NC2=O)c2ccccc21 [Enzastaurin]
- Emax [3, 5]: 39%
- IC50 [3, 6]: 15 µM
- Emax [3, 7]: 67 ± 6%
- IC50 [3, 8]: 2.06 ± 3.3 µM

SMILES: CC(C)C[C@H](NC(=O)[C@H](Cc1ccccc1)NC(=O)c1cnccn1)B(O)O [bortezomib]
- Effect on HIF-1α–NanoLuc level / luciferase activity, in words ([3]; HCT116 reporter cells): resulted in protein accumulation and increased luciferase activity; also recorded: potently induced accumulation of HIF-1α–NanoLuc proteins
- Effect on HRE–bla transcriptional activity, in words [4]: inhibited the transcriptional activity of HRE–bla

SMILES: COCCOC(=O)C1=C(C)NC(C)=C(C(=O)OC(C)C)C1c1cccc([N+](=O)[O-])c1 (stereo not drawn) [Nimodipine]
- IC50 [3, 11]: 15 µM
- Emax [3, 12]: 132%

SMILES: CN1CC[C@H](c2c(O)cc(O)c3c(=O)cc(-c4ccccc4Cl)oc23)[C@H](O)C1 [Flavopiridol]
- IC50 [3, 11]: 1.06 µM
- Emax [3, 12]: 76%

SMILES: CCOC(=O)C1=C(C)NC(C)=C(C(=O)OC)C1c1cccc([N+](=O)[O-])c1 (stereo not drawn) [Nitrendipine]
- IC50 [3, 11]: 15 µM
- Emax [3, 12]: 157%

SMILES: COC(=O)C1=C(C)NC(C)=C(C(=O)OCCN2CCN(C(c3ccccc3)c3ccccc3)CC2)C1c1cccc([N+](=O)[O-])c1 (stereo not drawn) [Manidipine]
- IC50 [3, 11]: 9.44 µM
- Emax [3, 12]: 86%

SMILES: CC(C)C[C@H](NC(=O)[C@H](CCc1ccccc1)NC(=O)CN1CCOCC1)C(=O)N[C@@H](Cc1ccccc1)C(=O)N[C@@H](CC(C)C)C(=O)[C@@]1(C)CO1 [carfilzomib]
- Effect on HIF-1α–NanoLuc level / luciferase activity, in words ([3]; HCT116 reporter cells): potently induced accumulation of HIF-1α–NanoLuc proteins
- Effect on HRE–bla transcriptional activity, in words [4]: inhibited the transcriptional activity of HRE–bla

SMILES: COCCOC(=O)C1=C(C)NC(C)=C(C(=O)OC/C=C/c2ccccc2)C1c1cccc([N+](=O)[O-])c1 (stereo not drawn) [Cilnidipine]
- IC50 [3, 11]: 10.6 µM
- Emax [3, 12]: 63%

SMILES: CC[C@@H]1C(=O)N(C)c2cnc(Nc3ccc(C(=O)N[C@H]4CC[C@H](N5CCN(CC6CC6)CC5)CC4)cc3OC)nc2N1C(C)C [Volasertib]
- Emax [3, 7]: 78 ± 14%
- IC50 [3, 8]: 9.57 ± 5.6 µM

SMILES: O=c1[nH]c(=S)[nH]c(-c2ccccc2)c1Cc1c(O)ccc2ccccc12 [Cambinol]
- Pathway inhibitors (validation) HIF-1α–NanoLuc Activity IC50 ([3]; Table S2, validation): Inactive

SMILES: COC(=O)C1=C(C)NC(C)=C(C(=O)OCCc2ccc(N3CCN(C(c4ccccc4)c4ccccc4)CC3)cc2)C1c1cccc([N+](=O)[O-])c1 (stereo not drawn) [Vatanidipine]
- IC50 [3, 11]: 1.19 µM
- Emax [3, 12]: 103%

SMILES: O=C(CCCCCCC(=O)Nc1ccccc1)NO [Vorinostat]
- Emax [3, 12]: 51%

SMILES: CNC(=O)c1ccccc1Sc1ccc2c(/C=C/c3ccccn3)n[nH]c2c1 [Axitinib]
- Pathway inhibitors (primary screen) HIF-1α–NanoLuc Activity IC50 ([3]; Table S2, primary screen): Inactive

SMILES: O=c1c(O)c(-c2ccc(O)c(O)c2)oc2cc(O)cc(O)c12 [Quercetine]
- Viability (BLA) confirmatory IC50 [2]: Inactive
- Emax [4]: 84 ± 10%
- IC50 [4]: 12.8 ± 0.84 µM

SMILES: COc1ccc2cc3[n+](cc2c1OC)CCc1cc2c(cc1-3)OCO2 [Berberine]
- IC50 [3, 11]: 0.94 µM
- Emax [3, 12]: 116%

SMILES: N#Cc1c(Oc2ccc(F)c(NC(=O)Cc3cccc(C(F)(F)F)c3)c2)ccc2nc(NC(=O)C3CC3)sc12 [TAK-632]
- Pathway inhibitors (validation) HIF-1α–NanoLuc Activity Efficacy ([3]; Table S2, validation): 85 ± 2%
- IC50 [3, 13]: 1.41 ± 0.23 µM

SMILES: COc1ccccc1N1CCN(CC(O)COc2cccc3ccccc23)CC1 (stereo not drawn) [Naftopidil]
- Viability (BLA) confirmatory IC50 [2]: Inactive
- HRE–bla confirmatory IC50 [4]: Inactive
